US20130263297A1, “METHODS OF TREATING CANCER” (Cedars-Sinai Medical Center, priority 2010, published 2013)
“Also recorded” adds a separate entry of the source.

Key:
[1] = system: RANKL promoter in LNCaP and LNCaP-RANKL cells; assay: RANKL promoter reporter assay, LNCaP model; type: cell-based, human; settings: for RANKL promoter activities in LNCaP cells: vitamin D3 and PTH stimulation
[2] = system: LNCaP cells; assay: EMT marker / RANKL expression and signaling by RT-PCR and Western blot, LNCaP model; type: cell-based, human; settings: 20 μM cMyc inhibitor
Procedure: Total RNA from cells was isolated using RNeasy Mini Kit (Qiagen, Valencia, Calif.) according to manufacturer's instructions. Complementary DNA (cDNA) was generated from 3 μg of total RNA using SuperScript® III First-Strand Synthesis System (Invitrogen, Carlsbad Calif.), and 1 μl of cDNA was subjected to PCR analyses using the following primers: RANKL F: 5′-TGGATCACAGCACATCAGAGCAG-3′ (SEQ ID NO:3); RANKL R: 5′-TGGGGCTCAATCTATATCTCGAAC-3′ (SEQ ID NO:4); RANK F: 5′-GGGAAAGCACTCACAGCTAATTTG-3′ (SEQ ID NO:5); RANK R: 5′-GCACTGGCTTAAACTGTCATTCTCC-3′ (SEQ ID NO:6); OPG F: 5′-GCT AAC CTC ACC TTC GAG-3′ (SEQ ID NO:7); OPG R: 5′-TGA TTG GAC CTG GTT ACC-3′ (SEQ ID NO:8); E-cadherin F: 5′-GCCAAGCAGCAGTACATTCTACACG-3′ (SEQ ID NO:9); E-cadherin R: 5′-GCTGTTCTTCACGTGCTCAAAATCC-3′ (SEQ ID NO:10); N-cadherin F: 5′-GATGTTGAGGTACAGAATCGT-3′ (SEQ ID NO:11); N-cadherin R: 5′-GGT CGG TCT GGA TGG CGA-3′ (SEQ ID NO:12); Snail F: 5′-CAGACCCACTCAGATGTCAA-3′ (SEQ ID NO:13); Snail R: 5′-CATAGTTAGTCACACCTCGT-3′ (SEQ ID NO:14); Vimentin F: 5′-GGA CTC GGT GGA CTT CTC-3′ (SEQ ID NO:15); Vimentin R: 5′-CGC ATC TCC TCC TCG TAG-3′ (SEQ ID NO:16). The PCR reaction cycles involved an initial denaturation at 94° C. for 10 min, followed by 36 cycles of 94° C., 1 min; 55° C., 30 sec for RANKL and RANK and 48° C., 1 min for OPG; 72° C., 1 min and a final extension at 72° C. for 10 min. For E-cadherin and N-cadherin gene amplification, the PCR reactions ran for a total of 32 cycles and the annealing temperature was 55° C. and 47° C., respectively for 30 sec. For Snail, Vimentin, and GAPDH amplification, the PCR reactions ran for a total of 28 cycles with annealing temperatures at 48° C. for 30 sec. The amplified PCR products were detected and analyzed on 1% agarose gel.
(§1) ARCaPE and LNCaP cells were cultured in 6-well plate and at 70% confluency, the cells were serum-starved overnight and then treated with 200 ng/ml of trimerized RANKL in serum-free and phenol-red free RPMI-1640 medium for three days before harvesting the cells. ARCaPE-RANKL and LNCaP-RANKL cells were cultured in 6-well plate and treated with 20 μM of LY294002, a PI3K inhibitor, 20 μM of SB203580, an inhibitor of MAP kinase reactivating kinase, or 2 μM of PS341 (bortezomib), a proteasome inhibitor, at 90% confluency for four hours. Cells were lysed in RIPA buffer containing 1× protease inhibitor cocktail (Thermo Fisher Scientific, Waltham, Mass.) and centrifuged, and the supernatants were collected and quantified using Bradford Protein Assay (Thermo Fisher Scientific, Waltham, Mass.). Cell lysates (20-30 μg) were resolved on a 4-12% Bis-Tris gradient SDS-PAGE (Invitrogen, Carlsbad, Calif.) under reducing conditions, followed by transblotting onto nitrocellulose membrane (BioRad, Hercules, Calif.). The membranes were blocked in 5% non-fat milk in PBST for one hour at room temperature (RT) and incubated with diluted primary antibodies in blocking buffer at 4° C. overnight. The primary antibodies used were RANKL, E-cadherin, vimentin, and OPG (Santa Cruz Biotechnology, Inc., Santa Cruz, Calif.), RANK (Amgen, Thousand Oaks, Calif.), N-cadherin (BD Transduction Laboratories, San Jose, Calif.), phosphor-Akt (Ser 473), Akt, phosphor-p38 (Thr180/Tyr182), p38, phosphor-ERK1/2 (Thr202/Tyr204), ERK, phosphor-SAPK/JNK (Thr183/Tyr185), JNK, phosphor-NF-κB p65 (Ser536), and NF-κB p65 (Cell Signaling Technology, Danvers, Mass.). The membranes were washed with PBST for three times before incubating with peroxidase-conjugated anti-mouse or anti-rabbit secondary antibodies at RT for one hour. After three times washing, the membranes were visualized using ECL Plus reagent (GE Healthcare, Piscataway, N.J.).

[3] = system: ARCaPE-RANKL cells; assay: Pathway inhibitor treatment followed by Western blot analysis, ARCaPE-RANKL; type: cell-based, human
Procedure: as §1

[4] = system: LNCaP-RANKL cells; assay: Pathway inhibitor treatment followed by Western blot analysis, LNCaP-RANKL; type: cell-based, human; settings: 4 h
Procedure: ARCaPE and LNCaP cells were cultured in 6-well plate and at 70% confluency, the cells were serum-starved overnight and then treated with 200 ng/ml of trimerized RANKL in serum-free and phenol-red free RPMI-1640 medium for three days before harvesting the cells. ARCaPE-RANKL and LNCaP-RANKL cells were cultured in 6-well plate and treated with 20 μM of LY294002, a PI3K inhibitor, 20 μM of SB203580, an inhibitor of MAP kinase reactivating kinase, or 2 μM of PS341 (bortezomib), a proteasome inhibitor, at 90% confluency for four hours. Cells were lysed in RIPA buffer containing 1× protease inhibitor cocktail (Thermo Fisher Scientific, Waltham, Mass.) and centrifuged, and the supernatants were collected and quantified using Bradford Protein Assay (Thermo Fisher Scientific, Waltham, Mass.). Cell lysates (20-30 μg) were resolved on a 4-12% Bis-Tris gradient SDS-PAGE (Invitrogen, Carlsbad, Calif.) under reducing conditions, followed by transblotting onto nitrocellulose membrane (BioRad, Hercules, Calif.). The membranes were blocked in 5% non-fat milk in PBST for one hour at room temperature (RT) and incubated with diluted primary antibodies in blocking buffer at 4° C. overnight. […]

[5] = system: RANKL promoter in human osteosarcoma SaOS-2 cells; assay: RANKL promoter reporter assay, SaOS-2; type: cell-based; settings: exogenous PTH and vitamin D3
From the text: (§2) Because the inventors are interested in how RANKL is transcriptionally regulated, the inventors have constructed a 2.5 kb 5′ upstream region of RANKL promoter. The inventors used BAC clones (RP11-86N24) to amplify the promoter region of RANKL from human chromosome 13 contig. The whole promoter region (2.5 kb) was then cloned into pGL3 basic luciferase reporter vector. The inventors placed RANKL promoter reporter into ARCaPE,M, C4-2, and a positive cell line, SaOS-2 to examine the basic promoter activity. Then, the inventors stimulated the RANKL promoter by various growth factors, such as vitamin D3, PTH, and TGFβ.

[6] = system: RANKL promoter in ARCaPE, ARCaPM and ARCaPE-RANKL cells; assay: RANKL promoter reporter assay, ARCaP model; type: cell-based, human; settings: vitamin D3 and PTH stimulation
From the text: as §2

[7] = system: cMet in ARCaPE cells; assay: cMet expression and phosphorylation (Western blot), ARCaPE; type: cell-based, human; settings: exogeneous RANKL or HGF treatment
[8] = system: cMet in LNCaP cells; assay: cMet expression and phosphorylation (Western blot), LNCaP; type: cell-based, human
[9] = system: RANKL-expressing prostate cancer cells; assay: Stem cell and neuroendocrine marker expression; type: cell-based
[10] = system: castration-resistant prostate cancer (CRPC) with bone metastasis; prostate or breast cancers; settings: cited from earlier work
[11] = molecular target: Flag-tagged RANKL stably expressed in LNCaP cells (LNCaP-RANKL); assay: cell-based or functional assay
[12] = molecular target: GFP-tagged RANKL stably expressed in ARCaPE cells (ARCaPE-RANKL); assay: cell-based or functional assay
[13] = 20 μM LY294002 or 2 μM PS341, 4 h
[14] = men with clinical progressive prostate or breast cancers

Molecule: CCc1ccc(/C=C2/SC(=S)NC2=O)cc1 [10058-F4, reference compound]
- RANKL transcriptional activity in LNCaP-RANKL cells or LNCaP cells treated with RANKL ([1]; 20 μM cMyc inhibitor): significantly decreased
- RANKL protein expression in LNCaP-RANKL cells or LNCaP cells treated with RANKL [2]: significantly decreased

Molecule: CC(C)C[C@H](NC(=O)[C@H](Cc1ccccc1)NC(=O)c1cnccn1)B(O)O [PS341, bortezomib]
- RANKL-induced EMT in ARCaPE-RANKL cells ([3]; 2 μM, 4 h): prevented
- E-cadherin expression in ARCaPE-RANKL cells [3, 13]: increased
- vimentin and RANKL expression in ARCaPE-RANKL cells [3, 13]: decreased
- RANKL-induced EMT in LNCaP-RANKL cells ([4]; 2 μM): prevented

Molecule: C[S+]([O-])c1ccc(-c2nc(-c3ccncc3)c(-c3ccc(F)cc3)[nH]2)cc1 (stereo not shown) [SB203580]
- phosphorylated level of P65 in ARCaPE-RANKL cells ([3]; 20 μM, 4 h): reduction
- phosphorylated level of P65 in LNCaP-RANKL cells ([4]; 20 μM): reduction

Molecule: C=C1CC[C@H](O)C/C1=C/C=C1\CCC[C@]2(C)[C@@H]([C@H](C)CCCC(C)C)CC[C@@H]12 [vitamin D3, reference compound]
- RANKL transcriptional (promoter) activity in SaOS-2 cells [5]: induced; also recorded: up-regulated
- RANKL promoter activities in LNCaP cells [1]: induced
- RANKL promoter activities in ARCaPE cells [6]: induced

Molecule: HGF: HGF, exogenous treatment activating c-Met
- cMet expression and phosphorylated level of cMet in ARCaPE cells [7]: significantly increased
- p-c-Met expression of the RANKL-induced c-Met ([8]; addition of HGF): increased
- cMet expression and phosphorylated level of cMet in LNCaP cells ([8]; exogeneous RANKL or HGF treatment): significantly increased

Molecule: denosumab
- expression of neuroendocrine markers [9]: blocked
- expression of stem cell markers [9]: antagonized
- osteonecrosis (undesirable side effects) ([10]; human, in vivo): reported in some patients
- patients' survival [10, 14]: improved
- skeletal related events [10, 14]: reduced
- progression of castration-resistant prostate cancer (CRPC) ([10]; patients with bone metastasis): delay or prevent

Molecule: recombinant osteoprotegerin (OPG)
- formation of mature osteoclasts (TRAP+ multinucleated cells) in co-culture of RAW264.7 with LNCaP-RANKL cells [11]: 2 fold

Molecule: recombinant osteoprotegerin (OPG) (receptor)
- formation of mature osteoclasts (TRAP+ multinucleated cells) in co-culture of RAW264.7 with ARCaPE-RANKL cells [12]: 2 fold

B1: parathyroid hormone (protein, UniProt P01270 32-115, looked up)
Parathyroid hormone: SVSEIQLMHNLGKHLNSMERVEWLRKKLQDVHNFVALGAPLAPRDAGSQRPRKKEDNVLVESHEKSLGEADKADVNVLTKAKSQ
modifications: Parathyroid hormone
- RANKL transcriptional (promoter) activity in SaOS-2 cells [5]: induced; also recorded: up-regulated
- RANKL promoter activities in LNCaP cells [1]: induced
- RANKL promoter activities in ARCaPE cells [6]: induced
